Results: patent publication US20250312469A1 (CANGET BIOTEKPHARMA, priority 2024, published 2025)

Biological target: T1, USP2a (Homo sapiens, UniProt O75604)
T1 sequence (O75604 1-605): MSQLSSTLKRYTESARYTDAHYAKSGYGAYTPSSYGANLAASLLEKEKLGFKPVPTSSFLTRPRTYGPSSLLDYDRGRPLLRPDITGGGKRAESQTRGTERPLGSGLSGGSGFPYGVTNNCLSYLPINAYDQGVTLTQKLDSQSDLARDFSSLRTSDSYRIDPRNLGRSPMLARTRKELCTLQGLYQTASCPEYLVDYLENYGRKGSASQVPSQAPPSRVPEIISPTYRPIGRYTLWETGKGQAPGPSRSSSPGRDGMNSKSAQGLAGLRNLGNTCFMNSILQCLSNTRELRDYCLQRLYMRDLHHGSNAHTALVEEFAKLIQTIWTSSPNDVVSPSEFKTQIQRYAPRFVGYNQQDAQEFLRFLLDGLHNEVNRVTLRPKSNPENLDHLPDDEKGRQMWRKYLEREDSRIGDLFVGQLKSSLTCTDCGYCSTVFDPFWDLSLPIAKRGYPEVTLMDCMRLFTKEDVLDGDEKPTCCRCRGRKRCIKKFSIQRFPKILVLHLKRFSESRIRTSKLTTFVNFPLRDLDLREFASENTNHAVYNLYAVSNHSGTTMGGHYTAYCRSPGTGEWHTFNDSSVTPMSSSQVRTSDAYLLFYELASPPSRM
Assay: ProtoArray protein microarray probed with 3H-FL118
Type: binding
Parameters: purchased Invitrogen ProtoArray Human Protein Microarray v5.0
Conditions: 3H-FL118 0.5 μM
Protocol: The flask was then immersed in silicone oil bath at 180° C.-190° C. for 6 hours. The tritium gas was removed. The reaction mixture was dissolved in 1 mL of DMSO and back-exchanged 10× with 50% ethanol. Injected directly to CapCeLL PAK C-18 column (4.6×250 mm), mobile phase 30% CH3CN, 0.1% TFA, flow 1 mL/min, U.V. =200 nm, r.t. =40 min. After purification, total activity was 5 mCi (solid) with a specificity of 5.6 Ci/mmol at a radiochemical purity of >97% for ^3H-FL118. […] The flask was then immersed in silicone oil bath at 190° C. for 24 h. The tritium gas was removed. The reaction mixture was dissolved in 1 mL of DMSO and back-exchanged 10× with 50% ethanol and injected directly to CapCeLL Pak C-18 column (4.6×250 mm), mobile phase 30% CH3CN, 0.1% TFA, […], U.V. =200 nm, r.t. =40 min. After purification total activity was 5 mCi (solid) with a specificity of 16.5 Ci/mmol at a radiochemical purity of ≥81% for ^3H-FL118.
Use of ^3H-FL118 as a radioactive probe to search FL118-binding proteins through screening of human protein microarray (ProtoArray R with 9,400 human proteins, Invitrogen): The study process includes the following steps.
1. Blocking the ProtoArray: (i) Immediately place the mailer containing the Human Protein Microarray v5.0 at 4° C. upon removal from storage at −20° C. and equilibrate the mailer at 4° C. for at least 15 minutes prior to use. (ii) Place Human Protein Microarrays with the barcode facing up in the bottom of a 4-chamber incubation tray such that the barcode end of the microarray is near the tray end containing an indented numeral. […] Avoid pipetting buffer directly onto the array surface. (iv) Incubate the tray for 1 hour at 4° C. on a shaker set at 50 rpm (circular shaking). (v) After incubation, remove Protein Microarrays from FL118 Assay Buffer. To remove array from the 4-chamber incubation tray, insert the tip of forceps into the indented numeral end and gently pry the array upward. Using a gloved hand, pick up the microarray by holding the array by its edges only. Tap to remove excess liquid from slide surface. (vi) Proceed immediately to Probing the Array.
2. Probing the ProtoArray: (i) Place each ProtoArray horizontally in a separate sterile 50 mL conical tube with about ⅓ of the array extended outside of the tube. The barcoded end of the array should protrude from the tube (face up). (ii) For each ProtoArray, add 100 μL of probing mixture including ^3H-FL118 (final concentration of ^3H-FL118 at 0.1 μM and 0.5 μM, respectively on different ProtoArray) and the positional mapping reagent ^3H-estradiol and pipet the mixture gently onto the surface of the ProtoArray. (iii) Gently place a coverslip over the surface of the ProtoArray using forceps to avoid capturing bubbles. […]

What does the source list for `CCC1(O)C(=O)OCc2c1cc1n(c2=O)Cc2cc3cc4c(cc3nc2-1)OCO4` (centres unmarked) [FL118]?
Signal used: 1959 3H counts per min; Z-Score: 3.7
